From patent publication US20230050846A1, “TREATMENT OF HEPATIC AND CARDIOVASCULAR DISORDERS” (LIFESEARCH, priority 2019, published 2023)

What was measured:
HepG2 cells = assay: HDL endocytosis assay in hepatocytes; assay type: cell-based, human; conditions: for effect on HDL endocytosis: 1 μM, HDL-Alexa568 50 μg/mL, 25 min, abolished by IF1 1 μM
Experimental: HepG2 cells were seeded on 96-well plates at 50,000 cells/well. HDL3 (d 1.12-1.21) were isolated from plasma of healthy human donors and referred to as HDL. HDL was fluorescently labeled with AlexaFluor®568 dye (A10238, Thermofisher Scientific) according the instructions of manufacturer. 1 h30 before the assay, the cells were serum starved for 1 h30 in order to stabilize nucleotide secretion. Cells were incubated with inhibitors (H49K, 1 μM) for 10 min before treatment with the different peptides (1 μM) or apoA-I (10 μg/ml) purified from human plasma. 5 min after peptide treatment, endocytosis was initiated by 50 μg/mL of AlexaFluor568®-labelled HDL. The same experiment was performed with a […] excess of unlabelled HDL (2.5 mg/mL) to determine the nonspecific fluorescence signal. After 25 min at 37° C., cells were then washed in serum-free DMEM and extracellular membrane-bound HDL was disassociated by incubating cells at 4° C. in serum-free DMEM for 90 min. Following washes, cells were lysate in NaOH 0.1M SDS 1% during 2 h, lysates were transferred in a black 96-wells plate and fluorescence was recorded at 568 nm (Varioscan flash). Fluorescence for each condition was substrate with the value obtained in unlabelled HDL condition, and results were expressed as the fold change as compared with the basal condition (untreated cells).

human F1Fo-ATPase = biological target: T1, human F1Fo-ATPase (Homo sapiens, UniProt P06576); assay: F1-ATPase activity assay (NADH-coupled, purified enzyme); assay type: biochemical; conditions: 1 μM
T1 construct: Human F1Fo-ATPase was purified from HepG2 cells by immunocapture; endogenous in cells; host or cells: HepG2 cells; complex isolated by immunocapture with anti-ATP synthase antibody 12F4AD8AF8 (#ab109867, Abcam)
Excerpt: The mature human IF1 protein (SEQ ID NO: 5) was chemically synthesized by GenScript (Piscataway, N.J., USA) at >80% purity. The peptides derived from the mature human IF1 sequence (IF1-1-60, IF1-10-56, IF1-10-47) were produced by BachemAG (Bubendorf, Switzerland) with >90% purity.
Human F1Fo-ATPase was purified from HepG2 cells by immunocapture using mouse monoclonal anti-ATP synthase antibody (12F4AD8AF8, #ab109867, Abcam) according to manufacturer's instructions.
Measurement of F1-ATPase activity was assayed as previously described. Briefly, 10 μg of F1Fo-ATPase was prepared into 50 μL of activity assay buffer (10 mM HEPES, 150 mM NaCl, 5 mM KCl, 5 mM MgCl2, 0.5 mM phosphoenolpyruvate, 250 μM NADH, 100 μM ATP, 20 U lactate dehydrogenase, 120 U pyruvate kinase). The mixture was incubated at 37° C. for 30 min. Then the F1-ATPase activity was measured in a 96-well microplate by adding 5 μL of the mixture (1 μg of F1Fo-ATPase per point) per well to 200 μL of activity assay buffer at 37° C., and by adding 5 μL of buffer with or without peptide (1 μM each). The reduction in the absorbance of NADH was measured at 340 nm for 5 min with a Varioskan™ Flash Multimode Reader (Thermo Fisher Scientific). A slope was calculated for each well and the results expressed as a percentage of the control slope.

[1] = biological target: T2, ecto-F1-ATPase (HepG2 cells) (Homo sapiens, UniProt P06576); assay: ecto-F1-ATPase activity: extracellular ADP content, luciferin-luciferase assay; assay type: cell-based; conditions: HepG2, 5 min, apoA-I 10 μg/mL; effect blunted by IF1
T2 construct: host or cells: HepG2
Experimental: The human hepatocyte cell line HepG2 was obtained from the American Type Culture Collection (#HB-8065). HepG2 were cultured in Dulbecco's Modified Eagle's Medium (DMEM)—high glucose (D0822, Sigma-Aldrich) supplemented with 10% fetal bovine serum (10270098, Life technologies), 1% Penicillin-Streptomycin solution (P0781, Sigma-Aldrich). HepG2 cells were seeded on 24-well plates at 75,000 cells/well (Day 0). After 24 hours of growing, cells were serum starved for 24 h in order to synchronize cell cycles (Day 1) and then replaced additional 24 h in complete cell growth medium (Day 2). On day 3, cells were washed and equilibrated in fresh DMEM—high glucose without red phenol for 1 h (D1145, Sigma-Aldrich).
The cells were then treated 5 min with different concentration of peptide of formula (I) (0.1 to 5 μM), the peptide of formula (II) (1 μM), SCR (1 μM), SCR-K-16 (1 μM) or apoA-I (10 μg/mL) purified from human plasma.
Specific ecto-F1-ATPase activation was assessed in the presence of IF1 protein (1 μM), a natural inhibitor of F1-ATPase that interacts with the β-subunit to inhibit the ATP hydrolysis activity [5].
Supernatants were then collected and centrifuged (10,000 g, 5 min, 4° C.) and processed for ADP and ATP measurement. For ADP measurement, ADP was converted into ATP in 150 mM NaCl, 5 mM KCl, 2 mM MgCl2, pH 7.5 buffer containing 0.5 mM phosphoenolpyruvate (PEP) and pyruvate kinase (PK, 6 U per point for 15 min at 37° C.). For ATP measurement, 100 μl of sample was analyzed using the ATP bioluminescence assay kit CLS II (Roche Diagnostics). Samples were added to the ATP assay mixture and luminescence was measured in a microplate reader Infinite F500 (Tecan, Switzerland) for 1000 ms. The ATP standard curve was produced in the same medium as the samples and in the 10^−5 to 10^−10 M concentration range. The ADP concentration was then calculated as the ATP concentration following ADP conversion minus the basal ATP concentration. Data are expressed as nanomoles of ADP produced.

HUVEC cells = assay: Endothelial nitric oxide (NO) production, DAF-FM-DA probe; assay type: cell-based, human; conditions: apoA-I; abolished by IF1
Experimental: Nitric oxide (NO) was detected using a DAF-FM-DA probe (D2321, Sigma-Aldrich) which forms fluorescent benzotriazole when it reacts with NO. HUVEC cells (PromoCell #C-12203) were seeded in 96-well plates (10,000 cells per well) and cultured in endothelial cell basal medium 2 (PromoCell #C-22211) supplemented with GM2 supplement Mix (PromoCell #C-39211), until 80-90% confluence. The medium was then replaced with M-199 without serum for 4 h, and the cells were incubated for 45 min with DAF-FM-DA (5 μM) diluted in PBS. Cells were treated with increasing concentrations of the different peptides or apoA-I (10 μM) purified from human plasma or histamine (1 mM) as positive control. In another set of experiments, cells were incubated with inhibitors (IF1, 1 μM) for 10 min before treatment with peptides or apoA-I. The fluorescence was recorded for 30 min (λex=495 nm, λem=515 nm) with a Tecan Flash Multimode Reader (Thermo Fisher Scientific). Fluorescence for each condition was compared with the value obtained in untreated cells, and results were expressed as the fold change as compared with the basal condition (untreated cells).

| Substance | effect on HDL endocytosis (HepG2 cells) | stimulation of F1-ATPase activity (human F1Fo-ATPase) | extracellular ADP concentration [1] | NO production by endothelial cells (HUVEC cells) | stimulation of HDL endocytosis compared to non-stimulated cells (HepG2 cells; apoA-I 10 μg/mL, abolished by IF1) |
| --- | --- | --- | --- | --- | --- |
| CH3CO-[SEQ ID NO: 2]-K-[palmitoyl]-NH2 (Ac-GEAKSYAEKGEARGERGTKGEFRIFKREATD-{K(palmitoyl)-NH2}) [SCR-K-C16, palmitoylated scramble peptide, negative control, reference compound] | no effect | no effect | – | – | – |
| apoA-I: Apolipoprotein A-I purified from human plasma, known F1-ATPase activator, positive control [reference compound] | – | – | increased | stimulated | about 45% |
| CH3CO-[SEQ ID NO: 2]-NH2 (Ac-GEAKSYAEKGEARGERGTKGEFRIFKREATD-NH2) [SCR, reference compound] | no effect | no effect | – | – | – |
